Consider seven molecules from publication PMC12635197, “Discovery of first-in-class inhibitors of the TRF1:TIN2 protein:protein interaction by fragment screening” (Scientific Reports, 2025).

Where no end group is shown, it is not given here. FAM = 5(6)-carboxyfluorescein

Data set [1] in a line: Fragment solubility assay (quantitative 1H NMR). It counts as physicochemical. As to conditions: Supplementary Table 1. Here is the method:
Aqueous solubility test samples were prepared by adding 3.6 µL compound (50 mM stock in 100% DMSO-d6) to 176.4 µL NMR buffer in a microcentrifuge tube. The samples were incubated overnight and transferred to a 3-mm NMR tube (Bruker, Part No. Z112272). ^1H NMR spectra were recorded, with the DMSO and water signals dampened. 1 mM caffeine (Sigma, C1778 in PBS (pH 7.4) with 1% DMSO-d6) was used as a standard to quantify the ligand signals and determine the concentration of samples.
NMR data were collected on a Bruker Avance Neo 600-MHz spectrometer equipped with a 5 mm TCI-CryoProbe. The ^1H spectrum was referenced to the internal deuterated solvent. The operating frequency for ^1H was 600 MHz. All NMR data were acquired at the temperature of 298 K. All data were acquired and processed using Bruker Topspin 4.0. The quantitative ^1H-NMR spectrum was acquired using a Bruker standard 1D lc1pngppsf2 pulse sequence with 32 scans. The sweep width was 6.2 ppm with O1P set to 8.8 ppm, and the FID contained 16k time-domain data points. Relaxation delay was set to 20 s. Water signal was suppressed.

For data set [2], the target named is T1, TRF1TRFH (Homo sapiens, UniProt P54274).
T1 construct: encoding residues 47–268, UniProt identifier P54274-1; His6-MBP (TEV-cleavable) (N, cleaved yes); made in house; host or cells: E. coli BL21-CodonPlus(DE3)-RIL
T1 sequence (P54274 47-268): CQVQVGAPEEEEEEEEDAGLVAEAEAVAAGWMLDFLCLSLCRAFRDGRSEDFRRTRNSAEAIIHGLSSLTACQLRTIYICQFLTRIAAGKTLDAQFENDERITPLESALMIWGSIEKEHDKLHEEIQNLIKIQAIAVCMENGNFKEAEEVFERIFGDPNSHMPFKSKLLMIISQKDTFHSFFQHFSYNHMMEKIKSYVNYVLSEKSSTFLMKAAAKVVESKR
The data set is described as follows: LO-NMR CPMG assay (relaxation-edited), singletons. The format is binding. As to conditions: single experiment; for CPMG reduction: average peak intensity reduction on addition of TRF1TRFH, 250 µM ligand, 20 µM protein; for CPMG recovery: net recovery of peak intensity on addition of TIN2TBM peptide (40 µM) to compound plus protein. As for the experimental part: We next used a LO-NMR CPMG assay to orthogonally validate XChem hits in solution, aiming to eliminate false positives and rank hit matter for follow-up studies. Compounds were tested as singletons and prepared in two samples containing either compound alone (sample 1) or compound + TRF1TRFH (sample 2).
The fragment screen by LO-NMR was carried out using conditions described previously, with some modifications. Fragments were dispensed in triplicate into a 384-well plate using an Echo 550 liquid handler to give a final ligand concentration of 250 µM (total sample volume of 40 µL). 40 µL of TRF1TRFH protein (in NMR buffer; 20 µM final protein concentration in the assay) were added to the ‘protein’ samples; 40 µL of TRF1TRFH protein and TIN2TBM peptide (21-mer, Ac-[…]-CONH2; 40 µM final concentration in the assay) were both added to the ‘competitor’ samples; 40 µL NMR buffer were added to the ‘compound-only’ samples. Solutions were transferred to 1.7-mm NMR tubes using a Bruker SamplePro Tube robotics system. ^1H NMR spectra were recorded on a Bruker AVIII 500 MHz spectrometer at 298 K, equipped with a 1.7-mm TXI probe, with samples in 1.7-mm SampleJET NMR tubes (Bruker). DMSO and water signals were dampened. A relaxation spin filter was applied at 400 ms. Data were processed using Bruker Topspin 4.0. Lines were broadened with LB = 3.0, and the baseline was corrected between 6.0 and 10.0 ppm.
The data were then analysed using the MNova Screen software. Only peaks between 5.5 and 9.5 ppm were considered. Peaks with a height of < 5% maximum peak height within the region of interest were considered noise, and the minimum matched peak level was set at > 51%. The relative peak intensity change (I) was calculated for all peaks in the 5.5–9.5 ppm region, for each compound, as described previously. The average integral for all peaks between 6.0 and 10.0 ppm was calculated, and the differences between compound-only, compound-plus-protein, and compound-plus-protein-plus-competitor samples were compared. The net recovery was calculated by subtracting the reduction in peak integral of the compound-plus-protein samples from the compound-plus-protein-plus-competitor samples.
For hit validation, relaxation-edited LO-NMR experiments were repeated as described above on single compounds instead of fragment cocktails.

Data set [3] has as its target T1, TRF1TRFH. The data set is described as follows: Crystal soaking of TRF1TRFH crystals. As to conditions: soaking into TRF1TRFH crystals; Supplementary Table 1. From the text:
Attempts to soak TRF1TRFH crystals with the commercially available analogues of the XChem hit 5 were also unsuccessful. Only one slightly smaller analogue (22) could be soaked into TRF1TRFH crystals, albeit with an ambiguous binding mode. […] In the case of compound 5, we observed a hydrogen bond between the amino group of the fragment and a backbone carbonyl in the neighbouring protein chain (Fig. 2i). […] Additionally, the pocket normally occupied by the conserved phenylalanine residue of the TIN2 F-X-L-X-P motif was fully obstructed by a crystal contact with a TRF1TRFH copy in an adjacent asymmetric unit, further limiting the possibility of obtaining XChem hits outside of the leucine pocket.
TRF1TRFH crystals in the P3_121 space group were grown by sitting drop vapour diffusion in SWISSCI 3-drop plates using similar crystallisation conditions to those described previously. The total drop volume was 300 nL, consisting of 150 nL of TRF1TRFH (31.2 mg/mL) and 150 nL of reservoir solution (1% PEG8000, 100 mM MES pH 6.0, 1–12 mM Mg(OAc)2, 10–15% glycerol), whilst the reservoir volume was 35 µL. Crystallisation plates were set up using an SPT Labtech mosquito Xtal2 liquid handler. Cuboid-shaped crystals grew to their maximum size (300 μm across) within 24 h. Crystals were cryoprotected through the addition of 180 nL of 40% glycerol to the crystal drop prior to harvesting, giving a final glycerol concentration of […] (accounting for the glycerol already in the crystallisation conditions). The crystals were then flash-frozen in liquid nitrogen, and data were collected at the Diamond Light Source beamlines I04 and I04-1 and processed automatically using the Xia2 Dials pipeline[53],[54]. The TRF1TRFH structure was solved by molecular replacement in Phaser MR[55] within CCP4[56] using the previously published TRF1TRFH structure as a search model (PDB: 1H6O)[31], after having first stripped the search model of solvent molecules and ligands. Structure refinement was done using Refmac[57] and Buster[36], and model correction and building was done using Coot 0.9.6[35].
The DSi-Poised library (768 fragment, Enamine)[32], the EUbOPEN DSiP extension library (108 fragments) and the FragLite library (31 fragments)[33] were screened against TRF1TRFH crystals. Compounds at 500 mM in DMSO stocks were dispensed into selected crystal drops as singletons using an Echo 550 liquid handler to give a final concentration of 50 mM (10% DMSO final concentration). After incubation for 1 h at 20 °C, 180 nL of glycerol (40% stock, final drop concentration 28.8–32.5%) were added to each drop immediately prior to crystal harvesting and flash-freezing in liquid nitrogen.
Data were collected on the I04-1 beamline at Diamond Light Source. […]

The target in the next data set is TIN2 TBM (Homo sapiens) (UniProt Q9BSI4). As to conditions: cited from earlier work.
The target of data set [4] is T2, TRFH domain of TRF1 (TRF1_(TRFH)), residues 47–268 (human, UniProt P54274-1 47-268).
T2 construct: cDNA codon-optimised for E. coli; also called TRF homology (TRFH) domain; source: E. coli BL21-CodonPlus(DE3)-RIL, purified (HisTrap, TEV cleavage, second HisTrap, Superdex 200 SEC); not shown: His6, N-terminal, cleaved; MBP, N-terminal, cleaved
T2 sequence (looked up): T1 sequence (P54274 47-268)
The data set can be described thus: fluorescence polarisation; direct titration: TRF1_(TRFH) 20 to 0.02 µM (11 points) against 25 nM TIN2-FAM; 25 mM HEPES-NaOH pH 7.5, 100 mM NaCl, 1 mM TCEP, 0.05% w/v CHAPS; 1 h at room temperature. As to conditions: both partners purified. On the technique in general: In fluorescence polarisation assays a small probe gives low polarisation when free and higher when bound to something large.

Data set [5] addresses T3, (StrepII)2-TEV-tagged TIN2, subunit of recombinant shelterin (UniProt Q9BSI4-1 1-451).
T3 construct: TIN2, gene NM_001099274.1, codon-optimised; a TEV site lies between tag and protein; The separately made control protein is called TIN2L; The discussion says that the complex carries a short peptidic tag on TIN2; source: Sf9, co-expressed with the other shelterin subunits (MultiBac baculovirus), purified (StrepTrap, serial SEC)
T3 sequence (looked up): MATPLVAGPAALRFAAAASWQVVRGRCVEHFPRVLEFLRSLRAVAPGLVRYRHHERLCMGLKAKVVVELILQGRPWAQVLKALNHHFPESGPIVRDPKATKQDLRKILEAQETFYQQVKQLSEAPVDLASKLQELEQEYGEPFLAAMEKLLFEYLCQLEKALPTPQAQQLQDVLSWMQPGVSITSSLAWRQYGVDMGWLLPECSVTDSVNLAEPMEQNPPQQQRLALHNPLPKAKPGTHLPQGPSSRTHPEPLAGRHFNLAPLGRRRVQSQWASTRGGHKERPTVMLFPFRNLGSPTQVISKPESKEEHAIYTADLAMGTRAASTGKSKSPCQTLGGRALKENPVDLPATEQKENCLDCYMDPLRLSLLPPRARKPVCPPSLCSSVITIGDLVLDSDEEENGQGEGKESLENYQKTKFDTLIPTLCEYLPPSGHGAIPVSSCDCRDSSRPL
The data set can be described thus: mass photometry; SEC-purified shelterin without compound; complex of around 700 kDa; 50 mM HEPES-NaOH pH 8.0, 300 mM NaCl. As to conditions: both partners purified.

Data set [6] deals with T4, TRF1 (telomeric repeat-binding factor 1), full length, subunit of recombinant shelterin (human), P54274.
T4 chain: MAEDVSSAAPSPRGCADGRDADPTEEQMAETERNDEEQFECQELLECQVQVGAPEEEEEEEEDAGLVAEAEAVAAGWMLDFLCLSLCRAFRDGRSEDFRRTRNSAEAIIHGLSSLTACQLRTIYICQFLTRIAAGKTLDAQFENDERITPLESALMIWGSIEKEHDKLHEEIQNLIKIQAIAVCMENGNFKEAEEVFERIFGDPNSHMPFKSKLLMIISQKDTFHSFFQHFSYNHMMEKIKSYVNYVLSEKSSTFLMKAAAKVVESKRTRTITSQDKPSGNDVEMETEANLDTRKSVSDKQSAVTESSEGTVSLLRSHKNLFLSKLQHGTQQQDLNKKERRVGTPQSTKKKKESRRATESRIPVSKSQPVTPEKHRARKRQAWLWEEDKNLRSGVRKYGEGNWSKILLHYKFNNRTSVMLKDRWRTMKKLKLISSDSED
The data set is described as follows: mass photometry; SEC-purified shelterin 1.25 µM incubated 1 h at room temperature with 100-300 µM compound 40, cross-linked with 0.1% glutaraldehyde, diluted to 50 nM. As to conditions: remark: other sources report otherwise.

On to `COc1ccc2sc(N)nc2c1` [Compound 20], for which the “Aq. Sol.” value in data set [1] stood at 580 µM. For the same molecule, at TRF1TRFH [2], the CPMG reduction is reported as 25% and the CPMG recovery worked out at 0%. In addition, at TRF1TRFH [3], the Crystal structure result is on record as “Yes”.
Take `COc1cc2nc(N)sc2cc1OC` [Compound 21]: the “Aq. Sol.” value in data set [1] is recorded as 190 µM. At TRF1TRFH [2], the CPMG reduction came to 14% and the CPMG recovery is on record as 12%. For the same molecule, at TRF1TRFH [3], the Crystal structure result is “No”.
With `COc1ccc2sc(C)nc2c1` [Compound 22], the “Aq. Sol.” value in data set [1] stood at 790 µM. Moreover, at TRF1TRFH [2], the CPMG reduction stood at 18% and the CPMG recovery came to 9%. Further, the Crystal structure entry at TRF1TRFH [3] was “Yes”.
In the case of `Nc1nc2cc3c(cc2s1)OCO3` [Compound 24], the “Aq. Sol.” value in data set [1] is 400 µM. At TRF1TRFH [2], the CPMG reduction was 28% and the CPMG recovery came to 11%. Moreover, on TRF1TRFH [3], the Crystal structure entry is “No”.
In general, Kd refers to the free concentration of one partner at which half of the binding sites on the other are occupied at equilibrium, for simple one-to-one binding. As for TRF1 TRFH (from UniProt P54274), in the data set with TIN2 TBM (Homo sapiens), the Kd is 300 nM.

B1: TIN2TBM peptide labelled with an N-terminal 5(6)-carboxyfluorescein (TIN2-FAM) (peptide)
chain: {FAM}-RHFNLAPLGRRRVQSQWASTR
The molecule B1 yielded a dissociation constant (Kd) in data set [4] of 400 nM.

B2: TRF1 (telomeric repeat-binding factor 1), full length, subunit of recombinant shelterin (natural protein, human, UniProt P54274-1 1-439, looked up)
chain: T4 chain
notes: TRF1, gene NM_017489.2, codon-optimised; the UniProt identifier is printed for the TRFH construct of the same protein; Further details of the shelterin construct 'to be reported elsewhere'; also called full-length TRF1
By stoichiometry N is commonly meant the number of molecules, sites or subunits per partner or assembly. As to B2, the results for the “stoichiometry N” value in data set [5] and in data set [6] were 2 TRF1 per TIN2 and 2, respectively.
